Assay results taken from US11535670B2, “Combination therapies of HDAC inhibitors and PD-L1 inhibitors” (HUYABIO International, LLC, priority 2016, dated 2022).

Legend:
HDAC 2 = HDAC 2 (Homo sapiens, UniProt Q92769); details: cited from earlier work
[1] = oral administration; cited from earlier work
[2] = test system: MC38 murine colon carcinoma; experiment: Example 1: tumor growth delay in MC38 syngeneic model, HBI-8000 at two doses alone and with PD-L1 inhibitor antibody; format: in vivo, C57BL/6 mice; details: for Median TTE: endpoint 1000 mm^3 or Day 47; for % TGD: versus vehicle
Experimental: In Example 1 HBI-8000 was tested in two doses as monotherapy and in two doses in combination with PD-L1 inhibitor antibody at 5 mg/kg. The experiment included a vehicle-treated group and a PD-L1 inhibitor antibody monotherapy group, which served as control groups for analysis of efficacy. Tumors were measured twice per week until the study was ended on Day 47. Each animal was euthanized when its tumor attained the endpoint tumor volume of 1000 mm^3 or on the final day of the study, whichever came first, and the time to endpoint (TTE) for each mouse was calculated. Treatment response was determined from an analysis of percent tumor growth delay (% TGD), defined as the percent increase in the median time to endpoint (TTE) for treated versus control mice; and by logrank significance of differences in survival among groups and regression responses.
Mice: Female C57BL/6 mice (Charles River Laboratories) were eight weeks old, with a body weight (BW) range of 15.4 to 22.0 grams on Day 1 of the study. The animals were fed ad libitum water (reverse osmosis, 1 ppm Cl), and NIH 31 Modified and Irradiated Lab Diet® consisting of 18.0% crude protein, 5.0% crude fat, and 5.0% crude fiber. The mice were housed on irradiated Enrich-o′cobs™ Laboratory Animal Bedding in static microisolators on a 12-hour light cycle at 20-22° C. (68-72° F.) and 40-60% humidity.
Tumor Cell Culture: MC38 murine colon carcinoma cells were maintained in Dulbecco's Modified Eagle Medium (DMEM) supplemented with 10% fetal bovine serum and 2 mM glutamine, 100 units/mL penicillin G sodium, 100 μg/mL streptomycin sulfate, and 25 μg/mL gentamicin. Cell cultures were maintained in tissue culture flasks in a humidified incubator at 37° C., in an atmosphere of 5% CO2 and 95% air.
Tumor Implantation: Cells were harvested during exponential growth, and resuspended in cold DMEM. Each mouse was inoculated subcutaneously in the right flank with 1×10^6 cells (0.1 mL of cell suspension). Tumors were calipered in two dimensions to monitor growth as their mean volume approached the desired 100-150 mm^3 range. Tumor burden was calculated using the formula:
[formula] • where w=width and l=length, in mm, of the tumor. Tumor weight may be estimated with the assumption that 1 mg is equivalent to 1 mm^3 of tumor volume. […]
Tumor Growth Delay: Tumors were measured using calipers twice per week, and each animal was euthanized when its tumor reached a volume of 1000 mm^3 or at the end of the study (D47), whichever came first. […] The time to endpoint (TTE) for analysis was calculated for each mouse by the following equation: […]

[3] = test system: MC38 murine colon carcinoma; experiment: Example 2: tumor growth delay in MC38 syngeneic model, HBI-8000 alone and with PD-L1 inhibitor antibody; format: in vivo, C57BL/6 mice; details: HBI-8000 50 mg/kg p.o. qd×21, anti-PDL-1 5 mg/kg i.p. biwk×3
Experimental: In the present example, HBI-8000 was tested as monotherapy and in combination with PD-L1 inhibitor antibody at 5 mg/kg. The experiment included a vehicle-treated group and a PD-L1 inhibitor antibody monotherapy group, which served as the control groups for analysis of efficacy. Tumors were measured twice per week until the study was ended on Day 50. Each animal was euthanized when its tumor attained the endpoint tumor volume of 1000 mm^3 or on the final day of the study, whichever came first, and the time to endpoint (TTE) for each mouse was calculated. Treatment response was determined from an analysis of percent tumor growth delay (% TGD), defined as the percent increase in the median time to endpoint (TTE) for treated versus control mice; and by logrank significance of differences in survival among groups and regression responses.
Mice: Details of the animals used in this example can be found in Example 1.
Tumor Cell Culture: Details of the tumor cells used in this example can be found in Example 1.
Tumor Implantation and Measurement: Details of tumor implantation and measurement of tumor growth used in this example can be found in paragraph Example 1. […]
Statistics: Details of the statistics and software used in this study can be found in Example 1. […] Table 3.1 describes the values calculated for TTE and % TGD for each treatment group.

[4] = HBI-8000 20 mg/kg p.o. qd×21, alone or plus anti-PDL-1 5 mg/kg i.p. biwk×3
[5] = HBI-8000 50 mg/kg p.o. qd×21, alone or plus anti-PDL-1 5 mg/kg i.p. biwk×3

Chain of HDAC 2 (Q92769 whole entry): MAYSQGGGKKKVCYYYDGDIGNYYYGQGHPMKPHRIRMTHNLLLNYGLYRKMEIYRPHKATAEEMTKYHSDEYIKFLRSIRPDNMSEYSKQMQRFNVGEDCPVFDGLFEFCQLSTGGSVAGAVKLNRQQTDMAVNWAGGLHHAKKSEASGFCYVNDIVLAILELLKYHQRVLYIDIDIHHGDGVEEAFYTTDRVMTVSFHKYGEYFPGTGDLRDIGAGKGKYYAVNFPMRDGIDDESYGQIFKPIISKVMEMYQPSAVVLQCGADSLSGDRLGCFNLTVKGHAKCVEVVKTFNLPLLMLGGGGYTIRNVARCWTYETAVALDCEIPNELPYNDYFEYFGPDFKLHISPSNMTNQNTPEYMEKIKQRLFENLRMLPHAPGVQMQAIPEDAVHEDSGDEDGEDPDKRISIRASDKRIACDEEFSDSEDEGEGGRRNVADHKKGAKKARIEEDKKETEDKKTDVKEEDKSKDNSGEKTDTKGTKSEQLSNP

## Nc1cc(F)ccc1NC(=O)c1ccc(CNC(=O)/C=C/c2cccnc2)cc1 [HBI-8000, N-(2-amino-4-fluorophenyl)-4-[[[(2E)-1-oxo-3-(3-pyridinyl)-2-propen-1-yl]amino]methyl]benzamide]
HDAC 2
  inhibition of HDAC 2: low nanomolar concentrations
HDAC 2; versus Entinostat
  activity at HDAC 2 compared with Entinostat: more active than Entinostat
[1]
  t1/2: about 17 hours
[2]; [4]
  Median TTE: 18.9 days
  % TGD: −8%
[2]; [5]
  Median TTE: 22.8 days
  % TGD: 11%
[3]; endpoint 1000 mm^3 or Day 50
  Median TTE: 28.4 days
[3]; versus vehicle
  % TGD: 62%
